Experimental data as given in patent US11318208B2, “Synthetic compound” (Syntab Therapeutics GmbH, priority 2016, dated 2022).
Square brackets hold non-standard residues; d marks the D form. Ends that are not written are not given here. * marks the point of attachment. Tyr(3-NO2) = N[C@@H](Cc1ccc(O)c([N+](=O)[O-])c1)C(=O)O; Hyp = O=C(O)[C@@H]1C[C@@H](O)CN1; For = O=C*

Columns and labels:
α3 Integrin [1] = target: T1, α3 Integrin (Homo sapiens, UniProt P05556+P26006); assay: FACS analysis of cell binding, binder targeting α3 Integrin; details: FIG. 8, 200 nM biotinylated binder, vs scrambled variant
T1 construct: endogenous in cells; host or cells: A431
Experimental: (§1) The binding capability of peptides or peptidomimectis, of synthetic compounds according to the invention to different cell lines displaying particular targets was investigated by using flow cytometry. Detached cells were incubated with biotinylated peptide/peptidomimetic or biotinylated synthetic compound in blocking buffer for at least 30 min of ice. The cells were washed twice with washing buffer followed by incubation with streptavidin labeled with the Peridinin-chlorophyll protein PerCP-Cy5.5 (BD Biosciences) for 15 minutes on ice. After one additional wash step, samples were analyzed using FACS Canto (at least 10,000 cells per sample were counted) for cells which have bound the biotinylated reagent plus the streptavidin-PerCP-Cy5.5. Overlay histograms of cells incubated with peptide or control peptide were generated and the geometrical mean fluorescence of each sample was determined in FloJo. The EC50 measurements were calculated using Graph Prism software.
(§2) The following cell lines were used. The presence or absence of the surface antigens α3 Integrin and αvβ6 Integrin has been verified by corresponding antibody tests: […]

α3 Integrin [2] = assay: as above; parameters: species or system human; details: FIG. 8; 200 nM biotinylated binder; K 562 does not express α3 Integrin
Experimental: as §1, §2

αvβ6 Integrin [3] = assay: FACS analysis of cell binding, binder targeting αvβ6 Integrin; parameters: species or system human; details: FIG. 9, 10 nM biotinylated binder
Experimental: as §1, §2

αvβ6 Integrin [4] = target: T2, αvβ6 Integrin (Homo sapiens, UniProt P06756+P18564); assay: as above; details: FIG. 9, 10 nM biotinylated binder, vs scrambled variant
T2 construct: The presence or absence of the surface antigens α3 Integrin and αvβ6 Integrin has been verified by corresponding antibody tests; endogenous in cells
Experimental: as §1, §2

human leukocytes [5] = assay: Chemotaxis assay; assay type: cell-based; details: FIG. 4A; in vitro in human leukocytes; compared with fMLF (devoid of an Ile residue)
Experimental: To test for the chemotactic effect of effector peptides or peptidomimetics, human leukocytes were re-suspended in Hanks' Buffered Saline Solution (HBSS, without Ca^2+, Mg^2+) with 10 mM Hepes pH 7.4 and 0.3% BSA at 10*10^6 cells/ml. Cells were pre-warmed at 37° C. for 20 min. After adding the effector dilutions in the above buffer into wells of 24-well plates (800 μl/well), a Millicell culture plate insert with 5 μm pore size was placed in each well, followed by immediate addition of 200 μl (2 million) leukocytes. The plate was incubated at 37° C. for 45 min. The total number of leukocytes that migrated to the bottom chamber was determined using a Neubauer chamber, or the numbers of transmigrated monocytes, neutrophils and lymphocytes were determined by flow cytometry (distinguish cell populations in FCS/SSC plot).

human leukocytes [6] = assay: DHR 123 oxidation assay (oxidative burst), human leukocytes; assay type: cell-based; details: FIG. 4B; in vitro in human leukocytes; compared with fMLF
Experimental: (§3) Oxidative burst in neutrophils form part of the cells host defense, and can be evoked, e.g., by the N-formyl peptide fMLP. (Kim et al, 2003). Oxidation assays are thus a useful tool to determine the potency of formyl peptides. The oxidative burst activity of neutrophils caused by incubation with effector peptides or peptidomimetics was measured by flow cytometry, quantifying the intracellular conversion of dihydrorhodamine 123 (DHR) to rhodamine. In brief, human or murine leukocytes (1.25*10^6 cells/ml) were incubated with catalase, cytochalasin B (Sigma) and DHR (Invitrogen) in Hanks' Buffered Saline Solution (HBSS, without Ca^2+, Mg^2+) with 10 mM Hepes pH 7.4, 5 mM EDTA and 0.3% BSA at 37° C. for 10 minutes followed by incubation with the different effector peptides or peptidomimetics at different concentrations for 15 minutes at 37° C. PMA was used as a positive control.
(§4) All samples were fixed in formaldehyde and kept on ice until analysis using FACS Canto (at least 20,000 cells per sample were counted). Neutrophils were identified based on forward and side scatter characteristics. Analysis of DHR fluorescence was performed by side scatter/FL2 dot plots. Percent of DHR-positive cells were identified by gating on a negative (unstimulated) control sample.

mouse leukocytes = assay: DHR 123 oxidation assay (oxidative burst), mouse leukocytes; assay type: cell-based; details: FIG. 5; in vitro in mouse leukocytes; compared with fMLF
Experimental: as §3, §4

T1 sequence (P26006 33-872 limits assumed): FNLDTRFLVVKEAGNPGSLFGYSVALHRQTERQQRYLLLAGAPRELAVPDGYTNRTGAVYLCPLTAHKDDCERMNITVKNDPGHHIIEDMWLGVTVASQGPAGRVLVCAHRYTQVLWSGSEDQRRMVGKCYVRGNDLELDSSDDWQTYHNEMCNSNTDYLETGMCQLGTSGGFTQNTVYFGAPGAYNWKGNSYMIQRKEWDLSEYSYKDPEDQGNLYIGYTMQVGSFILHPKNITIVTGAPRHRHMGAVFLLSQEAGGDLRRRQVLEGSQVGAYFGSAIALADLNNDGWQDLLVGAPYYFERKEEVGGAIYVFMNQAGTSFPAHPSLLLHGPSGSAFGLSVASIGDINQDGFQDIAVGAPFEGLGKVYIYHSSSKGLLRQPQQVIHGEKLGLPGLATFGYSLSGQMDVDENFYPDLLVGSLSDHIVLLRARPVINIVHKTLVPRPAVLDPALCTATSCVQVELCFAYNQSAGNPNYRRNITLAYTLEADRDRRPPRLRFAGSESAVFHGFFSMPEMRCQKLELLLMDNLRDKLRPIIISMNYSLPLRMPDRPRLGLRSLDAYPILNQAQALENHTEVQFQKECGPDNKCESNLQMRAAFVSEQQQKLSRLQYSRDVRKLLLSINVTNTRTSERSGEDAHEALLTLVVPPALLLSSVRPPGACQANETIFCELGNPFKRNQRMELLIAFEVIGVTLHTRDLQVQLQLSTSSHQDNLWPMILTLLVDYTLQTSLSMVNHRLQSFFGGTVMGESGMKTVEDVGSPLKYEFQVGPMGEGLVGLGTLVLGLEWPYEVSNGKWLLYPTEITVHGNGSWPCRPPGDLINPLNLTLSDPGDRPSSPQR
T1 sequence (P26006 873-1051 limits assumed): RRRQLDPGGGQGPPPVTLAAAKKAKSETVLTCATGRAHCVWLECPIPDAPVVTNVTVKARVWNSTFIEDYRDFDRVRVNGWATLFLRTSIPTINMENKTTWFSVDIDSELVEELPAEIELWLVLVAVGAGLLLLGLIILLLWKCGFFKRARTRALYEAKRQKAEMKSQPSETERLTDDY
T1 sequence (P05556 21-798): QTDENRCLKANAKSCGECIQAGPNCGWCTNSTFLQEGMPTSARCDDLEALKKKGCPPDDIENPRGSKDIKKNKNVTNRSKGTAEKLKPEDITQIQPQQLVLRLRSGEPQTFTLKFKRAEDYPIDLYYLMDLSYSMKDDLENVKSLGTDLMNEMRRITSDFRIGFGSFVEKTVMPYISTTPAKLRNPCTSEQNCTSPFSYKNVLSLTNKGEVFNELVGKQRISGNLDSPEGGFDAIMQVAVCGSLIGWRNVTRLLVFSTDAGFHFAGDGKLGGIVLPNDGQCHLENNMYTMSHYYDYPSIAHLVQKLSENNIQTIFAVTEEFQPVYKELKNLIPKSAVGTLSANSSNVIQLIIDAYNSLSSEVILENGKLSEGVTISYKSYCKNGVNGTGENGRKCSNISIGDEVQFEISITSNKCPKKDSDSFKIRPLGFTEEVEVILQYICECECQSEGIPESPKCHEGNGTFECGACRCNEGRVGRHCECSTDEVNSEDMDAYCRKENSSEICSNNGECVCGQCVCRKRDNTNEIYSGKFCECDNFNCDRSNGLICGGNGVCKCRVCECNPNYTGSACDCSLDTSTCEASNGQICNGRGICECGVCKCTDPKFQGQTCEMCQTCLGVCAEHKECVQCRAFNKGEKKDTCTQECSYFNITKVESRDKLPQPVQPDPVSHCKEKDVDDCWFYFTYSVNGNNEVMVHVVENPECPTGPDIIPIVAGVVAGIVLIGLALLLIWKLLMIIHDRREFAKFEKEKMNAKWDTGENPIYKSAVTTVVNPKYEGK
T2 sequence (P06756 31-889 limits assumed): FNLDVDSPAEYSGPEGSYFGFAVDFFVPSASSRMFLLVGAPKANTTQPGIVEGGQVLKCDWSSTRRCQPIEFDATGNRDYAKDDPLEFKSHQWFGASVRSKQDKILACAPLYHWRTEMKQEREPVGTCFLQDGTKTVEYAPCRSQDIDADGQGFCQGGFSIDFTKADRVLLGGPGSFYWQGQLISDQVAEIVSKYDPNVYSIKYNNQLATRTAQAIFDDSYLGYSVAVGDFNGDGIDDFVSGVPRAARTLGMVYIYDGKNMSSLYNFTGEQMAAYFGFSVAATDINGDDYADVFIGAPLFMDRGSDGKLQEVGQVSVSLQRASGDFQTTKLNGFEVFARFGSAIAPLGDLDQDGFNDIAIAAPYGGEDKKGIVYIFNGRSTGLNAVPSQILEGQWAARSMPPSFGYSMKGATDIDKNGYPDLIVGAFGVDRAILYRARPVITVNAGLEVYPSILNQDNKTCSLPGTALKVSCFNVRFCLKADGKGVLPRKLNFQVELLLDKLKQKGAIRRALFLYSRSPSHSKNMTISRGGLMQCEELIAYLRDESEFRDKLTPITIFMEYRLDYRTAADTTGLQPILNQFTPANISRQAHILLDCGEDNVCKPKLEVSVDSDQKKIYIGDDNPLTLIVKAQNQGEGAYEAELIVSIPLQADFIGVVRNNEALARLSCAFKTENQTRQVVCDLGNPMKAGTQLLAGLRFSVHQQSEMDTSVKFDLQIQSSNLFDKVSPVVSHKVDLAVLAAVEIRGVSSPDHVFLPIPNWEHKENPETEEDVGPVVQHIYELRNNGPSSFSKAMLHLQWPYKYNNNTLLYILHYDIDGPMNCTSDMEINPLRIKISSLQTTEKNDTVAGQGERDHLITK
T2 sequence (P06756 891-1048 limits assumed): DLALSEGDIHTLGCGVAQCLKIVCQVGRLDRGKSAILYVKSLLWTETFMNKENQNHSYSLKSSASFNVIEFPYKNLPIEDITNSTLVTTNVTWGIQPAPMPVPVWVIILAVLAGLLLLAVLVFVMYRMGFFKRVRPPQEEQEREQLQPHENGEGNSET
T2 sequence (P18564 22-788): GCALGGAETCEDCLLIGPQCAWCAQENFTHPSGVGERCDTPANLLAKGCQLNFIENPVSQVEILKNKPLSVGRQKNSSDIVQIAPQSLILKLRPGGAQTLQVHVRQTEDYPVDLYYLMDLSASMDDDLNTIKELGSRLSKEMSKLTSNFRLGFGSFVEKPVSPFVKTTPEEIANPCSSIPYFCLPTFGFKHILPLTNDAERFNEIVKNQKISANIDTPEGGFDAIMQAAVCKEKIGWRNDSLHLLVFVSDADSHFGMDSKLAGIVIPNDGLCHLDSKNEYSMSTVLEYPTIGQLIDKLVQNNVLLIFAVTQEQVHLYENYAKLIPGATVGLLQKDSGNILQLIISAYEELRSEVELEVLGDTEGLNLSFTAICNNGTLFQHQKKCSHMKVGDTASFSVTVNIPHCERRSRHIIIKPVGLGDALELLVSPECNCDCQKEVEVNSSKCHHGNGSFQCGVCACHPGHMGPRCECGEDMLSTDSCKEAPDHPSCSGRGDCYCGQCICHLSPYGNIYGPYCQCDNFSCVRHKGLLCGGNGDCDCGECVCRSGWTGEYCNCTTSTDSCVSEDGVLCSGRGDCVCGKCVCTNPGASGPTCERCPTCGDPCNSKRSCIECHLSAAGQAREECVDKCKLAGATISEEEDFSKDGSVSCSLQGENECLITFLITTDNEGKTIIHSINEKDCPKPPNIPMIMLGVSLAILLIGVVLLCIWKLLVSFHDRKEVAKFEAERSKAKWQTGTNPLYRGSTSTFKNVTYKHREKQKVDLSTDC

“SEQ ID NO: 1: peptidomimetic binder cdGY(3-NO2)GHypNc targeting α3 Integrin; tested biotinylated ([dC][dD]G[Tyr(3-NO2)]G[Hyp]N[dC]; cysteine pairing not given here; also: tested biotinylated, site not given here)” was tested, and the “binding to cell line A431” value (α3 Integrin [1]; A431 expresses α3 Integrin) was “binds”, the “binding to cell line PC3” value (α3 Integrin [1]; PC3 expresses α3 Integrin) was “binds” and the “binding to cell line U87-MG” value (α3 Integrin [1]; U87-MG expresses α3 Integrin) was “binds”. The “binding to cell line K 562” value (α3 Integrin [2]) was “do not bind”.

For “SEQ ID NO: 2: peptide binder RGDLATLRQL targeting αvβ6 Integrin; tested biotinylated (also: biotinylated, place not given here)”, the “binding to cell line PC-3” value (αvβ6 Integrin [3]; PC-3 does not express αvβ6 Integrin) was “do not bind”, the “binding to cell line U87-MG” value (αvβ6 Integrin [3]; U87-MG does not express αvβ6 Integrin) was “do not bind” and the “binding to cell line A431” value (αvβ6 Integrin [4]; A431 expresses αvβ6 Integrin) was “binds”. For the same substance, the “binding to cell line HT-29” value (αvβ6 Integrin [4]; HT-29 expresses αvβ6 Integrin) was “binds”.

“fMIFL: N-formyl methionine effector peptide fMIFL, comprises isoleucin; fM=N-formylmethionine, remaining letters L-amino acids (For-MIFL)” was tested, and the chemotactic effect (human leukocytes [5]) was “significantly better chemotactic effect”, the “activation of oxidative bursts” value (human leukocytes [6]) was “much better activation of oxidative bursts” and the “activation of oxidative bursts” value (mouse leukocytes) was “much better activation of oxidative bursts”.
